Measured values: US20250154144A1 (CHILDREN'S HOSPITAL MEDICAL CENTER, priority 2021, published 2025)
Where a chain is given by its changes, count along the chain named. Where two headings read alike, the source gives them in different places.

Legend:
FLT3 N841I = target: T1, FLT3 N841I (Homo sapiens, UniProt P36888, N841I); test: DiscoverX KINOMEscan competition binding, FLT3 N841I
T1 construct: purchased DiscoverX (KINOMEscan)
T1 sequence (P36888 27-993 N841I): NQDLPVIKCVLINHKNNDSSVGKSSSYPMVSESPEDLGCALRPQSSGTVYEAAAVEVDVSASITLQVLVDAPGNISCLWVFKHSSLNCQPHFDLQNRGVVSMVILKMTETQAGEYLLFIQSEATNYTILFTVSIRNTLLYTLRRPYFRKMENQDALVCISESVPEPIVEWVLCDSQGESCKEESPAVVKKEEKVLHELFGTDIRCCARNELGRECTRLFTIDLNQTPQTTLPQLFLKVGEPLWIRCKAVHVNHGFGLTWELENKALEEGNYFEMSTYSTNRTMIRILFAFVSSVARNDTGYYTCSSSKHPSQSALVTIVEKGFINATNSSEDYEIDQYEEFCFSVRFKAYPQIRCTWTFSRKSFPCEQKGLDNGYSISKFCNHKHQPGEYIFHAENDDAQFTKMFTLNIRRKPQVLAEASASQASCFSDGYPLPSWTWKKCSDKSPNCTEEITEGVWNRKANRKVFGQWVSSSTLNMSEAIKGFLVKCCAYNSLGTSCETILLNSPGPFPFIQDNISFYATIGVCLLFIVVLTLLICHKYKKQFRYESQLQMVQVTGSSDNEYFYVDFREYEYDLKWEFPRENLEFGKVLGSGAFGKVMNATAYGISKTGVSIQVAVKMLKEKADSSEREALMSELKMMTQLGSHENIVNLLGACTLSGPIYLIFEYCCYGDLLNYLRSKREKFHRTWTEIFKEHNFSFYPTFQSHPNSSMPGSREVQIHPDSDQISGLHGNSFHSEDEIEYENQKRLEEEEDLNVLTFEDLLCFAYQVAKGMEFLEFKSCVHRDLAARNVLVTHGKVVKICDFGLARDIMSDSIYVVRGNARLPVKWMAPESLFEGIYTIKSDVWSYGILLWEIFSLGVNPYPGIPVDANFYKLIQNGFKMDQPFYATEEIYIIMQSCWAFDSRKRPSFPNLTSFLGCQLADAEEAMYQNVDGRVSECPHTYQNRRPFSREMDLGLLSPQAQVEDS

FLT3 D835V = target: T2, FLT3 D835V (Homo sapiens, UniProt P36888, D835V); test: DiscoverX KINOMEscan competition binding, FLT3 D835V
T2 construct: purchased DiscoverX (KINOMEscan)
T2 sequence (P36888 27-993 D835V): T1 sequence (P36888 27-993 N841I) with D809V, I815N

MOLM14 D835Y cells = test: cells; assay type: cell-based; details: Homo sapiens, MOLM-14, 48 h, 48 hours, Cell Titer Glo; read-out: MOLM14 D835Y IC50
FLT3 = target: T3, FLT3 (Homo sapiens, UniProt P36888); test: RBC HotSpot Kinase Assay, FLT3
T3 sequence (P36888 610-943 limits assumed): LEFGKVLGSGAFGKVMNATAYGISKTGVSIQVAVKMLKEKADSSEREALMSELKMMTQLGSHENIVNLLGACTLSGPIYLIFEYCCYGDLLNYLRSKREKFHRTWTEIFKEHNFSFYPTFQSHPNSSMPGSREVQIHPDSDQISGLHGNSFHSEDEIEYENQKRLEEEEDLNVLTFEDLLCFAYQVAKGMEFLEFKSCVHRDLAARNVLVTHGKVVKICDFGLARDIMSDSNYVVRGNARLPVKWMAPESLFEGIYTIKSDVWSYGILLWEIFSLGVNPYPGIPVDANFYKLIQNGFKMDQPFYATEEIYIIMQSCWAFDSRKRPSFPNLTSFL

SMILES	Kd (FLT3 N841I)	Kd (FLT3 D835V)	IC50 (MOLM14 D835Y cells)	IC50 (FLT3; read-out: FLT3 IC50)	IC50 (FLT3; FLT3 IC50)
F[C@H]1CCNC[C@@H]1Nc1cncc(-c2cnc3cc(OC4CC4)ccn23)n1 [Compound 12, 6-(7-cyclopropoxyimidazo[1,2-a]pyridin-3-yl)-N-((3S,4S)-4-fluoropiperidin-3-yl)pyrazin-2-amine]	4.7 nM	0.16 nM	34 nM		< 0.5 nM
COc1cc2ncc(-c3cncc(N[C@H]4CNC[C@@H]4F)n3)n2nc1C1CC1 [Compound 22, 6-(6-cyclopropyl-7-methoxyimidazo[1,2-b]pyridazin-3-yl)-N-((3S,4S)-4-fluoropyrrolidin-3-yl)pyrazin-2-amine]	5.6 nM	0.15 nM			< 0.5 nM
COc1cc2ncc(-c3cncc(N[C@H]4CNCC[C@@H]4F)n3)n2nc1C1CC1 [Compound 24, 6-(6-cyclopropyl-7-methoxyimidazo[1,2-b]pyridazin-3-yl)-N-((3S,4S)-4-fluoropiperidin-3-yl)pyrazin-2-amine]	0.51 nM	0.063 nM			< 0.5 nM
COc1cc2ncc(-c3ccnc(N[C@H]4CNCC[C@@H]4F)n3)n2nc1C1CC1 [Compound 51, 4-(6-cyclopropyl-7-methoxyimidazo[1,2-b]pyridazin-3-yl)-N-((3S,4S)-4-fluoropiperidin-3-yl)pyrimidin-2-amine]	0.62 nM	0.11 nM	6 nM		< 0.5 nM

The next lines start with the values.

Kd (FLT3 N841I)	Kd (FLT3 D835V)	IC50 (MOLM14 D835Y cells)	IC50 (FLT3; read-out: FLT3 IC50)	IC50 (FLT3; FLT3 IC50)	SMILES
7.4 nM	0.47 nM	55 nM	< 0.5 nM		CC(O)(c1cn2c(-c3ccnc(N[C@H]4CNCC[C@@H]4F)n3)cnc2cn1)C(F)(F)F (single isomer, unassigned) [Compound 72]
0.97 nM	0.042 nM	11 nM		< 0.5 nM	COc1cc2ncc(-c3ccnc(N[C@@H]4CCCNC4)n3)n2cc1C(C)(C)O [Compound 44, (R)-2-(7-methoxy-3-(2-(piperidin-3-ylamino)pyrimidin-4-yl)imidazo[1,2-a]pyridin-6-yl)propan-2-ol]
0.61 nM	0.06 nM	24 nM		< 0.5 nM	COc1cc2ncc(-c3ccnc(N[C@H]4CNC[C@@H]4F)n3)n2nc1C1CC1 [Compound 49, 4-(6-cyclopropyl-7-methoxyimidazo[1,2-b]pyridazin-3-yl)-N-((3S,4S)-4-fluoropyrrolidin-3-yl)pyrimidin-2-amine]
		17 nM		< 0.5 nM	COc1cc2ncc(-c3ccnc(N[C@@H]4CCCNC4)n3)n2nc1C1CC1 [Compound 50, (R)-4-(6-cyclopropyl-7-methoxyimidazo[1,2-b]pyridazin-3-yl)-N-(piperidin-3-yl)pyrimidin-2-amine]
